Assay results published in ChEMBL document CHEMBL4402535, “Ellagic acid a multi-target bioactive compound for drug discovery in CNS? A narrative review” (Eur J Med Chem, 2019).
pEC50, pIC50: −log10 of the molar value.

What was measured:
[1] = biological target: Salmon testes DNA; experiment: Binding affinity to salmon DNA isolated from testis using dopamine as substrate in presence of CuCl2; format: nucleic-acid assay, Salmonidae
[2] = biological target: Acetylcholinesterase (Electrophorus electricus) (UniProt O42275); experiment: Inhibition of electric eel AChE using acetylthiocholine iodide as substrate
[3] = Antioxidant activity assessed as DPPH radical scavenging activity after 1 hr; format: functional
[4] = Antioxidant activity assessed as NO radical scavenging activity after 1 hr; format: functional
[5] = biological target: T1, Amyloid-beta precursor protein (Homo sapiens, UniProt P05067); experiment: Inhibition of beta amyloid (unknown origin) after 12 to 24 hrs
[6] = biological target: Acetylcholinesterase (Electrophorus electricus, UniProt O42275); experiment: Inhibition of electric eel AChE using acetylthiocholine iodide as substrate measured at 1 min intervals for 5 mins by Ellman's method
[7] = Antioxidant activity assessed as O2 radical scavenging activity after 1 hr; format: functional
[8] = Antioxidant activity assessed as DPPH radical scavenging activity; format: functional
[9] = biological target: Cholinesterase (Equus caballus) (UniProt P81908); experiment: Inhibition of equine serum BuChE using S-butyrylthiocholine chloride as substrate
[10] = biological target: T1, Amyloid-beta precursor protein; experiment: Inhibition of beta amyloid in human SH-SY5Y cells; format: cell-based
[11] = biological target: T2, Amine oxidase [flavin-containing] A (Homo sapiens, UniProt P21397); experiment: Inhibition of MAO-A (unknown origin)
T2 sequence (P21397 whole entry): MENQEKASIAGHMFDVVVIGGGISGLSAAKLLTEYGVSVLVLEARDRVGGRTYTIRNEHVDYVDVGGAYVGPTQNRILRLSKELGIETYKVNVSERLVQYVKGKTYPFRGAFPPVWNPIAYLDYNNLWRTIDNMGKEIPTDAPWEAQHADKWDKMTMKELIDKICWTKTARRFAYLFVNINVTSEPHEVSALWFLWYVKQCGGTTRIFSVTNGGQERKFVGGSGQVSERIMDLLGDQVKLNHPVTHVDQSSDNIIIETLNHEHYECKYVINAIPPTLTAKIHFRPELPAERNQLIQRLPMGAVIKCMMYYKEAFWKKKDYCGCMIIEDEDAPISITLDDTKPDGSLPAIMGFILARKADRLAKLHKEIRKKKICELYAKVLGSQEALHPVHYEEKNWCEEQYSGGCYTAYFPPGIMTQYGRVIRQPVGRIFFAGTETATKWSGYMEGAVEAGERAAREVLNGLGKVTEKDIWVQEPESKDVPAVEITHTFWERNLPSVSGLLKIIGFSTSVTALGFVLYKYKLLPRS

T1 sequence (P05067 whole entry): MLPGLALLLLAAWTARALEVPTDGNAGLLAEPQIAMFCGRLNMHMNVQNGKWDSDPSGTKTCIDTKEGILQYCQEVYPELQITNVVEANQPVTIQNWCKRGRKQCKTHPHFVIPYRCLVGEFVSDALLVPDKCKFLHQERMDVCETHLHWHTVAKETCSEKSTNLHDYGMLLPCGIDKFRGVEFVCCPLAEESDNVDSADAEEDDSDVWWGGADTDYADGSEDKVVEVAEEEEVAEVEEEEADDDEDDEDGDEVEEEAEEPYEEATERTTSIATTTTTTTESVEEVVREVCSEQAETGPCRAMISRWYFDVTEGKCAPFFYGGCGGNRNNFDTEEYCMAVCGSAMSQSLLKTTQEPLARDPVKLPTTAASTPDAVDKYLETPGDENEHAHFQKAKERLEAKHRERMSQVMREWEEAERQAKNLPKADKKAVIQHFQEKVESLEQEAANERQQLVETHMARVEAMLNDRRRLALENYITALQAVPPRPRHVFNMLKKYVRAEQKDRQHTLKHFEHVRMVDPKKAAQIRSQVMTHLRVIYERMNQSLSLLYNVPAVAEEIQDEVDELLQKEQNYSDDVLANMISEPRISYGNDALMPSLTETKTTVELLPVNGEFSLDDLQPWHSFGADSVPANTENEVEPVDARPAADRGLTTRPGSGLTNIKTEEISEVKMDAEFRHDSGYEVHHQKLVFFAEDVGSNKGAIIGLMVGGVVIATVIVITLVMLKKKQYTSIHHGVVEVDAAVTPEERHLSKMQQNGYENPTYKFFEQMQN
Acetylcholinesterase (Electrophorus electricus), sequence (O42275 24-633 limits assumed): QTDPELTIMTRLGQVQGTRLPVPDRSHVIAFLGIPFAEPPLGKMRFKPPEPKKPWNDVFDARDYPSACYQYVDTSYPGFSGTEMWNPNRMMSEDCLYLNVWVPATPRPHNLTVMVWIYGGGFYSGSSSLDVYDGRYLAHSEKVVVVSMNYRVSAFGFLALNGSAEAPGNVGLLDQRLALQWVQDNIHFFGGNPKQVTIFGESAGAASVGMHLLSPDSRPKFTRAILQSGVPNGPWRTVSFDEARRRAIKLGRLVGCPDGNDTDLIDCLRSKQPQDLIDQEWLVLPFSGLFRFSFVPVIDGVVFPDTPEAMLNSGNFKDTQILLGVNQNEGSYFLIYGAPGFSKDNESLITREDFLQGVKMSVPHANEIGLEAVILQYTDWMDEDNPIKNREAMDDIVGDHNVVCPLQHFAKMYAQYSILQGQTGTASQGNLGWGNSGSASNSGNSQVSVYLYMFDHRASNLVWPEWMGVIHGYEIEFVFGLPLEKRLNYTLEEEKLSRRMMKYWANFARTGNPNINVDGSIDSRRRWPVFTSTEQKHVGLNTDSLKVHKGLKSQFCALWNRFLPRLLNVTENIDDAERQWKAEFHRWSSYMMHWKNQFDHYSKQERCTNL
Cholinesterase (Equus caballus), sequence (P81908 whole entry): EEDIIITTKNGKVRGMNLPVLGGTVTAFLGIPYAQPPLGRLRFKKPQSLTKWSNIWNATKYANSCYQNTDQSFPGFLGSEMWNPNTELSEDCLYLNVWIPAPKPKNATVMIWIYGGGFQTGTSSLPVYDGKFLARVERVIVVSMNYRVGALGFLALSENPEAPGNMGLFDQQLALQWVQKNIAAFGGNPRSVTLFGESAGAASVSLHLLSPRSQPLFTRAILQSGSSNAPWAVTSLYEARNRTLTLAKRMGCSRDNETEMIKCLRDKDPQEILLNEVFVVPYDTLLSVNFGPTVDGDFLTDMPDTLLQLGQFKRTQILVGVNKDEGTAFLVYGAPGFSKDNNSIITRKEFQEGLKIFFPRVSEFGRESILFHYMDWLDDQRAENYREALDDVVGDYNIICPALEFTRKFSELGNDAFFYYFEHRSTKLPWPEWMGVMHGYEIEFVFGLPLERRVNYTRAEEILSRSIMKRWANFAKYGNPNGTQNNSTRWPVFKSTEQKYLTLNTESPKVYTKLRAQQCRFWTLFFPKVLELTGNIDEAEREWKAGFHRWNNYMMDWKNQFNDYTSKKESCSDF
Acetylcholinesterase, sequence (O42275 whole entry): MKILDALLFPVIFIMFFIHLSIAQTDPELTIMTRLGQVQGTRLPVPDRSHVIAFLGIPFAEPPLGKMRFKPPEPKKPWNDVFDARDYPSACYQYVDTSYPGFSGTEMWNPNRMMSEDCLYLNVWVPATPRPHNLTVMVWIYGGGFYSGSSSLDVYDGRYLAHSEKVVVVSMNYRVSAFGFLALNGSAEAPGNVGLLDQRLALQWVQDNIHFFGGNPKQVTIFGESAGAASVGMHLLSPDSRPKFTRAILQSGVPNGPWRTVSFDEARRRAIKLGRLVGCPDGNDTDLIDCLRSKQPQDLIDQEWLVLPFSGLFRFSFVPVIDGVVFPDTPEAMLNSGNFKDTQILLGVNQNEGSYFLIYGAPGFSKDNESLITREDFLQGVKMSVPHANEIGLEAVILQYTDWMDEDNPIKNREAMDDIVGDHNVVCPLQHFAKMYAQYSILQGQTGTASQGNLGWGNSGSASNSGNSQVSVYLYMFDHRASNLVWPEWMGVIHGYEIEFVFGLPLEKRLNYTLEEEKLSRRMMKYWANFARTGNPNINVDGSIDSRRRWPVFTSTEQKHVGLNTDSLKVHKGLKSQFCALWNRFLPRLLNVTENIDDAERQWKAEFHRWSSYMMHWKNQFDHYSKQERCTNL

## O=c1oc2c(O)c(O)cc3c(=O)oc4c(O)c(O)cc1c4c23 [ELLAGIC ACID]
[1]
  pIC50: 3.82 to 6.00
[2]
  EC24: 250 µM
[3]
  pIC50: 4.51
[4]
  pEC50: 4.62
[5]
  pIC50: 3.52 to 4.00
[6]
  pIC50: 3.88
[7]
  pEC50: 3.75
[8]
  pEC50: 5.16
[9]
  EC16: 250 µM
[10]
  pIC50: 3.52
[11]
  pEC50: 5.80
